Data on one compound can be found in ChEMBL document CHEMBL3797106, “Potent and Selective Agonists of Sphingosine 1-Phosphate 1 (S1P1): Discovery and SAR of a Novel Isoxazole Based Series” (J Med Chem, 2016).

The structures appear in SMILES notation.

The species entered for one series is Homo sapiens. The experiment in a line: Inhibition of calcium channel (unknown origin) at 10 uM by patch clamp method relative to control. For orientation: In patch-clamp work, channel activity is measured electrically.
A short description of series [1]: Plasma protein binding in dog. The settings on record: read-out: PPB. The format is ADME, cell-free, Canis lupus familiaris.
A short description of series [2]: Tmax in mouse at 10 mg/kg, po. It counts as ADME, organism-based. The following applies: in vivo.
For series [3], the system named is Rattus norvegicus. The experiment in a line: Reduction of blood lymphocyte level in Lewis rat at 0.03 mg/kg, po measured at 4 hrs by hematology analyzer relative to vehicle-treated control. The format is functional. Details: scale not given: the % may be the effect or the level left.
In a further series the target is T1, Cytochrome P450 2C8 (Homo sapiens, UniProt P10632).
T1 sequence (P10632 whole entry): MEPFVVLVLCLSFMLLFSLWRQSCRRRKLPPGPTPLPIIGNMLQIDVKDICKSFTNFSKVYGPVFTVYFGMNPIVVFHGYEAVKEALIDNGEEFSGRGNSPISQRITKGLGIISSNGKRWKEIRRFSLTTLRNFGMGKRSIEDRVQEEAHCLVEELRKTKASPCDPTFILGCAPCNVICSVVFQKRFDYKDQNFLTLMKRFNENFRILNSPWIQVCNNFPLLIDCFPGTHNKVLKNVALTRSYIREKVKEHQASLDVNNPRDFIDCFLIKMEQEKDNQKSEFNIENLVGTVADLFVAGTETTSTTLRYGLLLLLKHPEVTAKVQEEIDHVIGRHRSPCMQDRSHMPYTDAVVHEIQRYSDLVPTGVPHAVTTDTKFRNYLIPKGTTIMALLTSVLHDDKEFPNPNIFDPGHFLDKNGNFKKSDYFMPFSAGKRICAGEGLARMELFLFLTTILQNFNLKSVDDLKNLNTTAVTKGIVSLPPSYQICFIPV
The experiment in a line: Inhibition of CYP2C8 (unknown origin). The format is ADME.

The nature of series [4]: Oral bioavailability in rat at 5 mg/kg. It counts as ADME, organism-based. The following applies: in vivo.
The nature of series [5]: Cmax in cynomolgus monkey at 5 mg/kg, po. It counts as ADME, organism-based, Macaca fascicularis. Details: dose 5 mg/kg, route oral. The settings on record: in vivo.
The test system of series [6] is Rattus norvegicus. The experiment in a line: Antiarthritic activity in po dosed complete Freund's adjuvant-induced Lewis rat arthritis model assessed as suppression of paw swelling administered as qd for 21 days started from day of immunization measured 3 times per week of compound dosing by water displacement plethysmometry. The format is functional. The settings on record: 504 h.

A short description of series [7]: Lipophilicity, log D of the compound at pH 6.5. The settings on record: buffer. It counts as physicochemical.
Series [8] is described as follows: Oral bioavailability in cynomolgus monkey at 5 mg/kg. The format is ADME, organism-based, Macaca fascicularis. The settings on record: in vivo.

Consider `O=C(O)C1CN(Cc2ccc(-c3noc(-c4onc(-c5ccccc5)c4C(F)(F)F)n3)cc2)C1`, for which the inhibition (usually the change of the read-out against control, counted positive when it falls) in the series listed under Homo sapiens turned out to be 12%. For the same compound, the fraction unbound in series [1] was found to be 0.01. The Tmax (commonly the time at which the peak concentration occurs) in series [2] amounted to 3 h. In the series on Rattus norvegicus [3], the Activity came out at 75%. In addition, the IC50 (as a rule, the midpoint of a concentration-inhibition curve) at Cytochrome P450 2C8 was above 40 µM. Besides, the bioavailability (as a rule, the share of a dose that reaches the circulation, judged against a reference dose that is usually intravenous) is 52% in [4] and 70% in series [8]. Also, in series [5], the Cmax (as a rule, the highest concentration seen after dosing) was found to be 4 µM. In the series with Rattus norvegicus [6], the median effective dose (ED50) (commonly the midpoint of the dose-response relation) came to 0.05 mg/kg. Besides, in [7], the logD (in general, the decadic logarithm of the distribution of all forms, ionised or not, between an organic phase and buffer at a given pH) was 2.68.
